Reference: ChEMBL document CHEMBL1123114, “Structure-activity relationships of arylimidazopyridine cardiotonics: discovery and inotropic activity of 2-[2-methoxy-4-(methylsulfinyl)phenyl]-1H-imidazo[4,5-c]pyridine” (1985)

test system: Canis familiaris; assay: Percent change in mean arterial blood pressure in anesthetized dog; type: functional, Canis lupus familiaris; conditions: not given; further: test concentration or dose not given here

SMILES	Change
c1ccc(-c2nc3cc[nH]cc-3n2)cc1	-15%
COc1cc(SC)ccc1-c1nc2cc[nH]cc-2n1	-17%
COc1ccc(-c2nc3cc[nH]cc-3n2)c(OCCSC)c1	-21%
COc1cc(S(C)(=O)=O)ccc1-c1nc2ccncc2[nH]1	-5%
COc1cc([S+](C)[O-])ccc1-c1nc2c[nH]cnc-2n1 (stereo not drawn)	14%
CCSCCOc1cc(OC)ccc1-c1nc2cc[nH]cc-2n1	-21%
CCCOc1cc([S+](C)[O-])ccc1-c1nc2cc[nH]cc-2n1 (stereo not drawn)	-33%
COc1ccc(-c2nc3cc[nH]cc-3n2)c(OCC[S+](C)[O-])c1 (stereo not drawn)	-37%
COc1cc([S+](C)[O-])ccc1-c1nc2cccnc2[nH]1 (stereo not drawn) [SULMAZOLE]	-10%
Clc1ccc(-c2nc3cc[nH]cc-3n2)c(Cl)c1	-22%
COc1cc([S+](C)[O-])ccc1-c1nc2cnccc2[nH]1 (stereo not drawn) [ISOMAZOLE]	-1%
Cc1ccc(-c2nc3cc[nH]cc-3n2)c(C)c1	-24%
COc1ccc(-c2nc3c[nH]cnc-3n2)c(OC)c1	-15%
Cc1cccc(-c2nc3cc[nH]cc-3n2)c1	-20%
COc1cc(C)ccc1-c1nc2cc[nH]cc-2n1	-7%
COc1ccc(-c2nc3ccc[nH]c-3n2)c(OC)c1	-22%
CS(=O)(=O)c1ccc(-c2nc3cc[nH]cc-3n2)cc1	2%
COc1ccc(-c2nc3cc[nH]cc-3n2)c(OC)c1	-17%
COc1cc(OS(C)(=O)=O)ccc1-c1nc2cc[nH]cc-2n1	-25%
Cc1ccccc1-c1nc2cc[nH]cc-2n1	-20%
CSc1ccc(-c2nc3ccc[nH]c-3n2)cc1	-7%

organism: Felis catus; assay: Response ratio = (percent increase to drug)/(percent increase to 10 E-5 M isoproterenol); type: functional; conditions: not given

SMILES	Response ratio
c1ccc(-c2nc3cc[nH]cc-3n2)cc1	0.08
COc1cc(SC)ccc1-c1nc2cc[nH]cc-2n1	0.6
COc1ccc(-c2nc3cc[nH]cc-3n2)c(OCCSC)c1	0.3
COc1cc(S(C)(=O)=O)ccc1-c1nc2ccncc2[nH]1	1.05
COc1cc([S+](C)[O-])ccc1-c1nc2c[nH]cnc-2n1 (stereo not drawn)	0.21
CCSCCOc1cc(OC)ccc1-c1nc2cc[nH]cc-2n1	0.39
CCCOc1cc([S+](C)[O-])ccc1-c1nc2cc[nH]cc-2n1 (stereo not drawn)	0.3
COc1ccc(-c2nc3cc[nH]cc-3n2)c(OCC[S+](C)[O-])c1 (stereo not drawn)	0.32
COc1cc([S+](C)[O-])ccc1-c1nc2cccnc2[nH]1 (stereo not drawn) [SULMAZOLE]	0.16
Clc1ccc(-c2nc3cc[nH]cc-3n2)c(Cl)c1	0.22
COc1cc([S+](C)[O-])ccc1-c1nc2cnccc2[nH]1 (stereo not drawn) [ISOMAZOLE]	1
Cc1ccc(-c2nc3cc[nH]cc-3n2)c(C)c1	-0.1
COc1ccc(-c2nc3c[nH]cnc-3n2)c(OC)c1	0.24
Cc1cccc(-c2nc3cc[nH]cc-3n2)c1	0.25
COc1cc(C)ccc1-c1nc2cc[nH]cc-2n1	0.24
COc1ccc(-c2nc3ccc[nH]c-3n2)c(OC)c1	1
CS(=O)(=O)c1ccc(-c2nc3cc[nH]cc-3n2)cc1	0.24
COc1ccc(-c2nc3cc[nH]cc-3n2)c(OC)c1	0.81
COc1cc(OS(C)(=O)=O)ccc1-c1nc2cc[nH]cc-2n1	1.94
Cc1ccccc1-c1nc2cc[nH]cc-2n1	0.09

test system: Canis familiaris; assay: Percent change in heart rate in anesthetized dog; type: functional, Canis lupus familiaris; conditions: not given; further: test concentration or dose not given here

SMILES	Change
c1ccc(-c2nc3cc[nH]cc-3n2)cc1	13%
COc1cc(SC)ccc1-c1nc2cc[nH]cc-2n1	9%
COc1ccc(-c2nc3cc[nH]cc-3n2)c(OCCSC)c1	4%
COc1cc(S(C)(=O)=O)ccc1-c1nc2ccncc2[nH]1	8%
COc1cc([S+](C)[O-])ccc1-c1nc2c[nH]cnc-2n1 (stereo not drawn)	8%
CCSCCOc1cc(OC)ccc1-c1nc2cc[nH]cc-2n1	20%
CCCOc1cc([S+](C)[O-])ccc1-c1nc2cc[nH]cc-2n1 (stereo not drawn)	10%
COc1ccc(-c2nc3cc[nH]cc-3n2)c(OCC[S+](C)[O-])c1 (stereo not drawn)	-4%
COc1cc([S+](C)[O-])ccc1-c1nc2cccnc2[nH]1 (stereo not drawn) [SULMAZOLE]	13%
Clc1ccc(-c2nc3cc[nH]cc-3n2)c(Cl)c1	17%
COc1cc([S+](C)[O-])ccc1-c1nc2cnccc2[nH]1 (stereo not drawn) [ISOMAZOLE]	7%
Cc1ccc(-c2nc3cc[nH]cc-3n2)c(C)c1	12%
COc1ccc(-c2nc3c[nH]cnc-3n2)c(OC)c1	7%
Cc1cccc(-c2nc3cc[nH]cc-3n2)c1	17%
COc1cc(C)ccc1-c1nc2cc[nH]cc-2n1	8%
COc1ccc(-c2nc3ccc[nH]c-3n2)c(OC)c1	18%
CS(=O)(=O)c1ccc(-c2nc3cc[nH]cc-3n2)cc1	10%
COc1ccc(-c2nc3cc[nH]cc-3n2)c(OC)c1	9%
COc1cc(OS(C)(=O)=O)ccc1-c1nc2cc[nH]cc-2n1	17%
Cc1ccccc1-c1nc2cc[nH]cc-2n1	24%
CSc1ccc(-c2nc3ccc[nH]c-3n2)cc1	27%

organism: Felis catus; assay: Response ratio = (percent increase to drug)/(percent increase to 10 E-4 M isoproterenol); type: functional; conditions: not given

SMILES	Response ratio
c1ccc(-c2nc3cc[nH]cc-3n2)cc1	1.97
COc1cc(SC)ccc1-c1nc2cc[nH]cc-2n1	0.59
COc1ccc(-c2nc3cc[nH]cc-3n2)c(OCCSC)c1	0.55
COc1cc(S(C)(=O)=O)ccc1-c1nc2ccncc2[nH]1	1.68
COc1cc([S+](C)[O-])ccc1-c1nc2c[nH]cnc-2n1 (stereo not drawn)	0.58
CCSCCOc1cc(OC)ccc1-c1nc2cc[nH]cc-2n1	0.47
CCCOc1cc([S+](C)[O-])ccc1-c1nc2cc[nH]cc-2n1 (stereo not drawn)	0.82
COc1ccc(-c2nc3cc[nH]cc-3n2)c(OCC[S+](C)[O-])c1 (stereo not drawn)	1.19
COc1cc([S+](C)[O-])ccc1-c1nc2cccnc2[nH]1 (stereo not drawn) [SULMAZOLE]	0.78
Clc1ccc(-c2nc3cc[nH]cc-3n2)c(Cl)c1	0.99
COc1cc([S+](C)[O-])ccc1-c1nc2cnccc2[nH]1 (stereo not drawn) [ISOMAZOLE]	2.33
Cc1ccc(-c2nc3cc[nH]cc-3n2)c(C)c1	0
COc1ccc(-c2nc3c[nH]cnc-3n2)c(OC)c1	1.59
Cc1cccc(-c2nc3cc[nH]cc-3n2)c1	1.32
COc1cc(C)ccc1-c1nc2cc[nH]cc-2n1	1.42
COc1ccc(-c2nc3ccc[nH]c-3n2)c(OC)c1	2.27
CS(=O)(=O)c1ccc(-c2nc3cc[nH]cc-3n2)cc1	0.51
COc1ccc(-c2nc3cc[nH]cc-3n2)c(OC)c1	1
COc1cc(OS(C)(=O)=O)ccc1-c1nc2cc[nH]cc-2n1	3.13
Cc1ccccc1-c1nc2cc[nH]cc-2n1	1.22

test system: Canis familiaris; assay: Compound tested for contractility in anesthetized dog when administered intravenously.; type: functional; conditions: Canis lupus familiaris, iv

SMILES	ED50
c1ccc(-c2nc3cc[nH]cc-3n2)cc1	2.5 mg/kg
COc1cc(SC)ccc1-c1nc2cc[nH]cc-2n1	0.2 mg/kg
COc1ccc(-c2nc3cc[nH]cc-3n2)c(OCCSC)c1	1.1 mg/kg
COc1cc(S(C)(=O)=O)ccc1-c1nc2ccncc2[nH]1	0.02 mg/kg
COc1cc([S+](C)[O-])ccc1-c1nc2c[nH]cnc-2n1 (stereo not drawn)	0.6 mg/kg
CCSCCOc1cc(OC)ccc1-c1nc2cc[nH]cc-2n1	1 mg/kg
CCCOc1cc([S+](C)[O-])ccc1-c1nc2cc[nH]cc-2n1 (stereo not drawn)	1 mg/kg
COc1ccc(-c2nc3cc[nH]cc-3n2)c(OCC[S+](C)[O-])c1 (stereo not drawn)	5.2 mg/kg
COc1cc([S+](C)[O-])ccc1-c1nc2cccnc2[nH]1 (stereo not drawn) [SULMAZOLE]	0.3 mg/kg
Clc1ccc(-c2nc3cc[nH]cc-3n2)c(Cl)c1	0.7 mg/kg
COc1cc([S+](C)[O-])ccc1-c1nc2cnccc2[nH]1 (stereo not drawn) [ISOMAZOLE]	0.03 mg/kg
Cc1ccc(-c2nc3cc[nH]cc-3n2)c(C)c1	1.4 mg/kg
COc1ccc(-c2nc3c[nH]cnc-3n2)c(OC)c1	0.3 mg/kg
Cc1cccc(-c2nc3cc[nH]cc-3n2)c1	1 mg/kg
COc1cc(C)ccc1-c1nc2cc[nH]cc-2n1	0.28 mg/kg
COc1ccc(-c2nc3ccc[nH]c-3n2)c(OC)c1	0.8 mg/kg
CS(=O)(=O)c1ccc(-c2nc3cc[nH]cc-3n2)cc1	7.5 mg/kg
COc1ccc(-c2nc3cc[nH]cc-3n2)c(OC)c1	0.3 mg/kg
COc1cc(OS(C)(=O)=O)ccc1-c1nc2cc[nH]cc-2n1	0.006 mg/kg
Cc1ccccc1-c1nc2cc[nH]cc-2n1	2.2 mg/kg
CSc1ccc(-c2nc3ccc[nH]c-3n2)cc1	1.9 mg/kg

organism: Felis catus; assay: Compound tested for contractility in isolated cat papillary muscle at 10 e-5 M.; type: functional; conditions: not given

SMILES	Control
c1ccc(-c2nc3cc[nH]cc-3n2)cc1	106%
COc1cc(SC)ccc1-c1nc2cc[nH]cc-2n1	143%
COc1ccc(-c2nc3cc[nH]cc-3n2)c(OCCSC)c1	122%
COc1cc(S(C)(=O)=O)ccc1-c1nc2ccncc2[nH]1	176%
COc1cc([S+](C)[O-])ccc1-c1nc2c[nH]cnc-2n1 (stereo not drawn)	115%
CCSCCOc1cc(OC)ccc1-c1nc2cc[nH]cc-2n1	128%
CCCOc1cc([S+](C)[O-])ccc1-c1nc2cc[nH]cc-2n1 (stereo not drawn)	122%
COc1ccc(-c2nc3cc[nH]cc-3n2)c(OCC[S+](C)[O-])c1 (stereo not drawn)	123%
COc1cc([S+](C)[O-])ccc1-c1nc2cccnc2[nH]1 (stereo not drawn) [SULMAZOLE]	112%
Clc1ccc(-c2nc3cc[nH]cc-3n2)c(Cl)c1	116%
COc1cc([S+](C)[O-])ccc1-c1nc2cnccc2[nH]1 (stereo not drawn) [ISOMAZOLE]	172%
Cc1ccc(-c2nc3cc[nH]cc-3n2)c(C)c1	93%
COc1ccc(-c2nc3c[nH]cnc-3n2)c(OC)c1	117%
Cc1cccc(-c2nc3cc[nH]cc-3n2)c1	118%
COc1cc(C)ccc1-c1nc2cc[nH]cc-2n1	117%
COc1ccc(-c2nc3ccc[nH]c-3n2)c(OC)c1	172%
CS(=O)(=O)c1ccc(-c2nc3cc[nH]cc-3n2)cc1	117%
COc1ccc(-c2nc3cc[nH]cc-3n2)c(OC)c1	158%
COc1cc(OS(C)(=O)=O)ccc1-c1nc2cc[nH]cc-2n1	240%
Cc1ccccc1-c1nc2cc[nH]cc-2n1	106%

organism: Felis catus; assay: Compound tested for contractility in isolated cat papillary muscle at 10 e-4 M.; type: functional; conditions: not given

SMILES	Control
c1ccc(-c2nc3cc[nH]cc-3n2)cc1	242%
COc1cc(SC)ccc1-c1nc2cc[nH]cc-2n1	142%
COc1ccc(-c2nc3cc[nH]cc-3n2)c(OCCSC)c1	140%
COc1cc(S(C)(=O)=O)ccc1-c1nc2ccncc2[nH]1	221%
COc1cc([S+](C)[O-])ccc1-c1nc2c[nH]cnc-2n1 (stereo not drawn)	142%
CCSCCOc1cc(OC)ccc1-c1nc2cc[nH]cc-2n1	134%
CCCOc1cc([S+](C)[O-])ccc1-c1nc2cc[nH]cc-2n1 (stereo not drawn)	159%
COc1ccc(-c2nc3cc[nH]cc-3n2)c(OCC[S+](C)[O-])c1 (stereo not drawn)	186%
COc1cc([S+](C)[O-])ccc1-c1nc2cccnc2[nH]1 (stereo not drawn) [SULMAZOLE]	156%
Clc1ccc(-c2nc3cc[nH]cc-3n2)c(Cl)c1	171%
COc1cc([S+](C)[O-])ccc1-c1nc2cnccc2[nH]1 (stereo not drawn) [ISOMAZOLE]	268%
Cc1ccc(-c2nc3cc[nH]cc-3n2)c(C)c1	100%
COc1ccc(-c2nc3c[nH]cnc-3n2)c(OC)c1	215%
Cc1cccc(-c2nc3cc[nH]cc-3n2)c1	195%
COc1cc(C)ccc1-c1nc2cc[nH]cc-2n1	202%
COc1ccc(-c2nc3ccc[nH]c-3n2)c(OC)c1	264%
CS(=O)(=O)c1ccc(-c2nc3cc[nH]cc-3n2)cc1	137%
COc1ccc(-c2nc3cc[nH]cc-3n2)c(OC)c1	172%
COc1cc(OS(C)(=O)=O)ccc1-c1nc2cc[nH]cc-2n1	326%
Cc1ccccc1-c1nc2cc[nH]cc-2n1	188%
